In US20240016876A1, “COMPOSITION FOR HANGOVER RELIEF COMPRISING NONI FRUIT EXTRACT OR FRACTION THEREOF AND USE THEREOF” (Cosmax NBT, Inc., priority 2020, published 2024):

Test system: alcohol dehydrogenase (ADH)
Assay: ADH activity enhancing efficacy (in vitro, Bergmeyer method)
Format: biochemical
Details: samples treated at 10 μM; control group (CTL) not treated = 100%; FIGS. 1 and 2
Experimental: The ADH activity was measured by referring to [Bergmeyer, H. U. 1974. Methods of enzymatic analysis. Academic Press, New York. pp. 28], and measurements were made according to the method presented herein. All samples were treated at 10 μM, and the ADH activity of each sample was expressed as relative activity (%) with respect to the control group, based on 100% of the activity of the control group (CTL) which was not treated with the sample.

SMILES: CC(=O)OCC1=C[C@@H]2OC(=O)C3=CO[C@@H](O[C@@H]4O[C@H](CO)[C@@H](O)[C@H](O)[C@H]4O)[C@H]1[C@@H]32 [asperuloside]
- ADH activity compared to the control group: did not show an increase

SMILES: O=C(O)c1cc(O)c(O)c(O)c1 [gallic acid]
- ADH activity compared to the control group: did not show an increase

SMILES: COc1cc2ccc(=O)oc2cc1O [scopoletin]
- ADH activity compared to the control group: did not show an increase

SMILES: O=C(O)c1ccc(O)cc1 [4-hydroxybenzoic acid]
- ADH activity compared to the control group: did not show an increase

SMILES: O=C(O)C1=CO[C@@H](O[C@@H]2O[C@H](CO)[C@@H](O)[C@H](O)[C@H]2O)[C@@H]2C(CO)=C[C@H](O)[C@H]12 [deacetylasperulosidic acid]
- ADH activity compared to the control group: did not show an increase

SMILES: COc1ccc(C(=O)O)cc1 [p-anisic acid]
- ADH activity compared to the control group: did not show an increase

SMILES: O=C(/C=C/c1ccc(O)c(O)c1)O[C@@H]1C[C@](O)(C(=O)O)C[C@@H](O)[C@H]1O [chlorogenic acid]
- ADH activity compared to the control group: did not show an increase

SMILES: CC(=O)OCC1=C[C@H](O)[C@@H]2C(C(=O)O)=CO[C@@H](O[C@@H]3O[C@H](CO)[C@@H](O)[C@H](O)[C@H]3O)[C@H]12 [asperulosidic acid]
- ADH activity compared to the control group: did not show an increase

SMILES: O=C(O)/C=C/c1ccc(O)c(O)c1 [caffeic acid]
- ADH activity compared to the control group: did not show an increase
